Results as given in patent US4016176A, “Esters of 4-hydroxy-2,9-dioxatricyclo[4.3.1.0^3,7 ] decanes and processes for their production” (Kali-Chemie Pharma GmbH, priority 1973, dated 1977).

Tests used:
[1] = system: mice; test: acute toxicity (LD50) in mice; assay type: in vivo, mouse; conditions: for B - lethal dose (LD50) to mice, intraperitoneally: intraperitoneal; for B - lethal dose (LD50) to mice, intraperitoneally / A - lethal dose (LD50) to mice, per os: Table 3; for relative toxicity compared with the 4-hydroxy compound (in words): 4β-esters compared with Compound No. 1246
Excerpt: (§1) In the Table 3 which follows are listed results of tests pertaining to the effectiveness of various compounds that are disclosed herein. The results are included in the several columns under letters whose significance is as follows:
(§2) A - lethal dose (LD50) to mice in milligrams per kilogram of body weight of the mouse when administered per os.
(§3) B - lethal dose (LD50) to mice in milligrams per kilogram of body weight of the mouse when administered intraperitoneally.
(§4) A. lethal dose (LD50) to mice in milligrams per kilogram body weight of the mouse when administered per os.
(§5) B. lethal dose (LD50) to mice in milligrams per kilogram body weight of the mouse administered intraperitoneally.
(§6) The values specified in Tables 4 and 5 hereinafter refer to milligrams per kilogram of body weight of the mouse.
(§7) Tests performed in accordance with the procedure described by Campbell and Richter in Acta Pharmacol. et Toxicol., vol. […] This is indicated by the results that are reported in Table 5 in which the headings A and F have the same significance as hereinbefore while the values in the column heading L pertain to the dose in milligrams per kilogram of body weight that was required to produce a lowering of the rectal temperature, which are values indicative of the depressant effect of a compound upon the central nervous system.

[2] = system: mouse; test: prolongation of narcosis produced by hexobarbital in mice; assay type: in vivo; conditions: for E - dose which prolongs narcosis produced by hexobarbital in a mouse by a factor of 4: factor of 4, Table 3; for prolongation of narcosis produced by hexobarbital (in words): comparison of epimers
Excerpt: (§8) In the Table 3 which follows are listed results of tests pertaining to the effectiveness of various compounds that are disclosed herein.

[3] = system: mice; test: narcosis (lateral position) in mice; assay type: in vivo, mouse; conditions: mouse; for ED50: ip, 0.05 h, read-out: D - narcosis (lateral position): dose (ED50) which produces narcosis for 3 minutes in 50% of the mice, intraperitoneal, narcosis for 3 minutes, Table 3; for narcosis (in words): comparison of epimers
Excerpt: as §8

[4] = system: mouse; test: sedative effect, comparison of esters with 4-hydroxy compounds; assay type: in vivo; conditions: for sedative effect relative to the corresponding hydroxy compound (in words): compared with corresponding hydroxy compounds, Compound No. 1561; for sedative effect or ataxia relative to the 4-hydroxy compound (in words): 4β-esters compared with Compound No. 1246
Excerpt: The effectiveness of the 2,9-dioxatricyclo[4.3.1.0^3,7 ]decanes of the present invention as narcotics is obviously sterospecifically related to the 4αconfiguration. Particularly surprising is the narcotic effect of the esters as compared to the 4-hydroxy compounds. Whereas nearly 300 or even 800 milligrams per kilogram of the 4-hydroxy compounds are required to induce narcosis, the required doses of the carbamates is only at most 100 milligrams per kilogram and their toxicity is in general very low.

[5] = system: mouse; test: ataxia in mice; assay type: in vivo; conditions: mouse; for C - ataxia: dose required to produce ataxia in a mouse: Table 3
Excerpt: as §1
C - ataxia: Dose in milligrams per kilogram of body weight required to produce ataxia in a mouse.

[6] = system: cats; test: narcosis in cats, intravenous; assay type: in vivo, cat
Description: (§9) The toxicity and narcotic effectiveness of this compound were determined in tests with cats and dogs. […] The intravenous administration of a dose equivalent to 5 milligrams per kilogram of body weight to cats produced a narcosis that persisted for 10 minutes, whereas doses of 10 and 15 milligrams per kilogram produced narcoses that persisted for 25 and 60 minutes, respectively.

[7] = system: dogs; test: narcosis in dogs, intravenous; assay type: in vivo, dog; conditions: Canis lupus familiaris, narcosis for 1 hour, read-out: dose required to produce a narcosis that persisted for 1 hour
Description: In dogs a dose of 17.5 milligrams of the compound per kilogram of body weight administered intravenously was required to produce a narcosis that persisted for 1 hour.

[8] = acute toxicity in cats, intravenous; conditions: cat, in vivo, read-out: lethal dose (LD50) for cats
Description: as §9

[9] = acute toxicity (LD50) in mice; assay type: in vivo, mouse; conditions: mouse, in vivo, mouse
Excerpt: as §1, §2, §3, §4, §5, §6, §7

[10] = system: mouse; test: lowering of the rectal temperature in mice; assay type: in vivo; conditions: mouse; Table 5; read-out: L dose required to produce a lowering of the rectal temperature
Excerpt: as §6, §7

[11] = system: white mice; test: ptosis test (Campbell and Richter screening); assay type: in vivo, mouse; conditions: for dose producing ptosis relative to the 4-hydroxy compound (in words): compared with Compound No. 1561; for F ptosis test: mouse, Table 5
Excerpt: The sedative and hypnotic effectiveness of the compounds of the invention were also ascertained by screening tests with white mice described by Campbell and Richter in Acta Pharmacol. et Toxicol. 25 (1967) page 345. In Table 4 the results of various specific screening tests are listed. These tests were as follows:
as §6, §7

[12] = narcosis, Example 17 compound; conditions: in vivo
[13] = acute toxicity of Example 17 compound, p.o.; conditions: mouse, in vivo, po
[14] = system: white mice; test: spasmolytic effect
[15] = po, per os, Table 5, read-out: A lethal dose (LD50) to mice, per os
[16] = po, per os, Table 3, read-out: A - lethal dose (LD50) to mice, per os

| Compound | B - lethal dose (LD50) to mice, intraperitoneally ([1]; mouse) | A - lethal dose (LD50) to mice, per os ([1]; mouse) | E - dose which prolongs narcosis produced by hexobarbital in a mouse by a factor of 4 [2] | sedative effect relative to the corresponding hydroxy compound (in words) [4] | C - ataxia: dose required to produce ataxia in a mouse [5] | relative toxicity compared with the 4-hydroxy compound (in words) [1] | sedative effect or ataxia relative to the 4-hydroxy compound (in words) [4] | further results |
| --- | --- | --- | --- | --- | --- | --- | --- | --- |
| CCNC(=O)OC1CC2C(C)C3OC(OC)C2C1(C)O3 (stereo not drawn) [Compound No. 2026, 4α-(N-Ethylcarbamyloxy)-8-methoxy-3,10-dimethyl-2,9-dioxatricyclo[4.3.1.0^3,7]decane] | 297 milligrams per kilogram of bod | 518 milligrams per kilogram of bod | 31.6 milligrams per kilogram of bod | greater sedative effect than the corresponding hydroxy compounds | 68.1 milligrams per kilogram of bod | – | – | ED50 [3]: 100 mg/kg |
| COC1OC2OC3(C)C(OC(=O)NC(C)C)CC(C2C)C13 (stereo not drawn) [Compound No. 2057, 4β-(N-Isopropylcarbamyloxy)-3,10-dimethyl-8-methoxy-2,9-dioxatricyclo[4.3.1.0^3,7]decane] | 1000 milligrams per kilogram of bod | > 1470 milligrams per kilogram of bod | – | – | 147 milligrams per kilogram of bod | reduction in the relative toxicity | distinct increase in the sedative effect or ataxia | prolongation of narcosis produced by hexobarbital (in words) [2]: produces neither a narcosis nor a prolongation of narcosis produced by hexobarbital; narcosis (in words) [3]: produces neither a narcosis nor a prolongation of narcosis produced by hexobarbital; dose required for producing ataxia [5]: 147 milligrams per kilogram of body weight |
| C=C1C2OC(OC)C3C1CC(OC(=O)NCC)C3(C)O2 (stereo not drawn) [Compound No. 2076, 4α-(N-Ethylcarbamyloxy)-8-methoxy-3-methyl-10-methylene-2,9-dioxatricyclo[4.3.1.0^3,7]decane] | 527 milligrams per kilogram of bod | 1025 milligrams per kilogram of bod | – | – | 50 milligrams per kilogram of bod | – | – | toxicity of the epimers (in words) ([1]; mouse, 2067 versus 2076): substantially the same toxicity; duration of narcosis ([6]; 5 mg/kg): 10 min; duration of narcosis ([6]; 10 mg/kg): 25 min; duration of narcosis ([6]; 15 mg/kg): 60 min; prolongation of narcosis produced by hexobarbital (in words) [2]: does not prolong narcosis produced by hexobarbital; ED50 [3]: < 100 mg/kg; narcosis (in words) [3]: produces narcosis; minimal effective dose [7]: 17.5 mg/kg; LD50 [8]: 226 mg/kg; doses effective in producing ataxia (in words) ([5]; 2067 versus 2076): identical doses are effective in producing ataxia |
| COC1OC2OC3(C)C(OC(C)=O)CC(C2C)C13 (stereo not drawn) [Compound No. 2080, 4α-Acetoxy-8-methoxy-3,10-dimethyl-2,9-dioxatricyclo[4.3.1.0^3,7]decane] | > 1000 milligrams per kilogram of bod | > 1470 milligrams per kilogram of bod | – | greater sedative effect than the corresponding hydroxy compounds | 50 milligrams per kilogram of bod | – | – | LD50 [9, 15]: 1470 mg/kg; minimal effective dose [10]: 400 mg/kg; dose producing ptosis relative to the 4-hydroxy compound (in words) [11]: one-fourth or one-half of the dose required of the 4-hydroxy-compound; F ptosis test [11]: 100 milligrams per kilogram of bod |
| COC1OC2OC3(C)C(OC(=O)Nc4ccccc4)CC(C2C)C13 (stereo not drawn) [Example 17, 4β-(N-Phenylcarbamyloxy)-8-methoxy-3,10-dimethyl-2,9-dioxatricyclo[4.3.1.0^3,7]decane] | – | – | – | – | – | – | – | narcosis (in words) [12]: did not produce narcosis; LD50 [13]: 1500 mg/kg; spasmolytic ED50 relative to the ED100 of atropine ([14]; % of the ED100 of atropine): 0.2%; spasmolytic ED50 relative to the ED100 of papaverine ([14]; % of the ED100 of papaverine): 0.1% |
| CCNC(=O)OC1CC2C(C)C3OC(OC)C2C1(C)O3 (stereo not shown) [compound 1767] | 890 milligrams per kilogram of bod | > 1500 milligrams per kilogram of bod | – | – | 400 milligrams per kilogram of bod | reduction in the relative toxicity | distinct increase in the sedative effect or ataxia | – |
| CCC(=O)OC1CC2C(C)C3OC(OC)C2C1(C)O3 (stereo not shown) [compound 2044] | 436 milligrams per kilogram of bod | – | – | – | 147 milligrams per kilogram of bod | reduction in the relative toxicity | distinct increase in the sedative effect or ataxia | LD50 [9, 16]: 1470 mg/kg |
| COC1OC2OC3(C)C(OC(C)=O)CC(C2C)C13 (stereo not shown) [compound 2045] | – | – | 316 milligrams per kilogram of bod | – | 200 milligrams per kilogram of bod | reduction in the relative toxicity | distinct increase in the sedative effect or ataxia | LD50 ([9]; ip, intraperitoneal, Table 3, read-out: B - lethal dose (LD50) to mice, intraperitoneally): 1000 mg/kg; LD50 [9, 16]: 1470 mg/kg |
| CCC(=O)OC1CC2C(C)C3OC(OC)C2C1(C)O3 (stereo not shown) [compound 2081] | 1379 milligrams per kilogram of bod | > 1470 milligrams per kilogram of bod | 316 milligrams per kilogram of bod | greater sedative effect than the corresponding hydroxy compounds | 50 milligrams per kilogram of bod | – | – | LD50 [9, 15]: > 1470 mg/kg; minimal effective dose [10]: 100 mg/kg; dose producing ptosis relative to the 4-hydroxy compound (in words) [11]: one-fourth or one-half of the dose required of the 4-hydroxy-compound; F ptosis test [11]: 200 milligrams per kilogram of bod |
